Data on four molecules can be found in BindingDB's records for doi:10.1111/cbdd.12342 (Zhejiang University, 2014).

For the assay, the target named is T1, Proteasome subunit beta type-5 (Homo sapiens, UniProt P28074).
T1 sequence (P28074 whole entry): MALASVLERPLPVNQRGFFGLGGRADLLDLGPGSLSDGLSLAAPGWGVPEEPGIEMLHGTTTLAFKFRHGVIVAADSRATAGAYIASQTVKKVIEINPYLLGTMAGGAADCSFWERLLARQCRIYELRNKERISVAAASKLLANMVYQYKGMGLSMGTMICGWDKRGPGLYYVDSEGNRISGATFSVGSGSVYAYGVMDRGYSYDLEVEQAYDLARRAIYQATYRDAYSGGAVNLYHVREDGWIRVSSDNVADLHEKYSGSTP
The assay is described as follows: 20S proteasome chymotrypsin-like inhibition assay.

Consider `COc1ccc(C(=O)NC(CC(=O)N[C@@H](CC(C)C)C(=O)N[C@@H](CC(C)C)C(=O)[C@@]2(C)CO2)c2ccccc2)cc1` (some centres undefined) [4-Methoxy-N-{3-{S-4-methyl-1-[S-4-methyl-1-(R-2-methyloxiran-2-yl)-1-oxopentan-2-ylamino]-1-oxopentan-2-ylamino}-3-oxo-1-phenylpropyl} benzamide (21e)], for which the IC50 (in general, the midpoint of a concentration-inhibition curve) is 1010 nM.

On to `CC(C)C[C@H](NC(=O)CC(NC(=O)c1ccc(F)cc1)c1ccccc1)C(=O)N[C@@H](CC(C)C)C(=O)[C@@]1(C)CO1` (some centres undefined) [4-Fluoro-N-{3-{S-4-methyl-1-[S-4-methyl-1-(R-2-methyloxiran-2-yl)-1-oxopentan-2-ylamino]-1-oxopentan-2-ylamino}-3-oxo-1-phenylpropyl} benzamide (21d)], for which the IC50 was found to be 970 nM.

`CC(C)C[C@H](NC(=O)CC(NC(=O)c1ccccc1)c1ccccc1)C(=O)N[C@@H](CC(C)C)C(=O)[C@@]1(C)CO1` (some centres undefined) [N-{3-{S-4-Methyl-1-[S-4-methyl-1-(R-2-methyloxiran-2-yl)-1-oxopentan-2-ylamino]-1-oxopentan-2-ylamino}-3-oxo-1-phenylpropyl} benzamide (21c)] registered an IC50 of 1420 nM. Then `CC(C)C[C@H](NC(=O)CC(NC(=O)c1cccnc1)c1ccccc1)C(=O)N[C@@H](CC(C)C)C(=O)[C@@]1(C)CO1` (some centres undefined) [N-{3-{S-4-Methyl-1-[S-4-methyl-1-(R-2-methyloxiran-2-yl)-1-oxopentan-2-ylamino]-1-oxopentan-2-ylamino}-3-oxo-1-phenylpropyl} nicotinamide (21b)], with 1850 nM.
